Literature values, collected in patent publication US20060287301A1, “Novel formulations for phenothiazines, including fluphenazine and its derivatives” (priority 2005, published 2006).
Counter-ions that a name gives are not always drawn. Like-named read-outs stand apart in the source and are kept apart here.

Settings: words only

Row | Structure (SMILES) | solubility in water (HCl) | solubility in water
1 | OCCN1CCN(CCCN2c3ccccc3Sc3ccc(C(F)(F)F)cc32)CC1 [Fluphenazine HCl] | poorly soluble | 
2 | OCCN1CCN(CCCN2c3ccccc3Sc3ccc(C(F)(F)F)cc32)CC1 [Fluphenazine, fluphenazine] |  | marginally water soluble
